This test in a line: viability loss in fusion assay cells – cell-based, MAGI and MAGI-HeLa co-culture, cytotoxicity control for HIV-1 fusion inhibitor project, dose response (AID 2286).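 On all read-outs here: cells exposed to compound for at least 64 h before ATP readout; 100% = median of DMSO vehicle wells with no ATP signal meaning 0%.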 Particulars: MAGI-CCR5 cells viability, CellTiter-Glo ATP luminescence; for minimum viability: measured here: MAGI minimum viability across doses. A general note: Cellular ATP, detected with luciferase, serves as a proxy for viable cell number.

The mark [1] stands for this setting: MAGI-HeLa co-culture viability, at 50 µM, stronger effect = lower value.
Where [2] appears, read: at 3.13 µM, stronger effect = lower value.
Setting [3] is: at 12.5 µM, stronger effect = lower value.
The mark [4] stands for this setting: at 6.25 µM, stronger effect = lower value.

Calls of active or inactive are those of the source.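 How the source made its calls: active means minimum cell viability of 80% or lower across the dose range, counted as toxic; inactive means minimum cell viability above 80%.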

What is called viability is a read-out of living cells in per cent, often relative to untreated cells. For `CCC(Sc1nc2ccsc2c(=O)n1Cc1ccc(C(=O)O)cc1)C(=O)Nc1ccc(C)c(Cl)c1` (centres undefined), the viability under setting [1] stood at 98% and the viability (at 25 µM (top of the series)) is 93.6% (inactive). Also, the minimum viability under setting [2] was 86.7%.

With `COc1cc(/C=C2\C(=N)N3N=C(S(C)(=O)=O)SC3=NC2=O)cc(OC)c1OCCOc1ccccc1C`, the viability is 124% under setting [1] and 106% (inactive) (at 50 µM (top of the series)). Also, under setting [3], the minimum viability stood at 102%.

Turning to `O=C(O)c1cc(N2N=C(C(F)(F)F)/C(=C/C=C/c3ccco3)C2=O)ccc1Cl`, the viability runs as follows: under setting [1], 120%; (at 50 µM (top of the series)) 92.8% (inactive). Besides, the minimum viability under setting [3] came out at 84.9%.

Take `CC1=C(C(=O)Nc2ccccc2)C(c2ccc(Cl)cc2)n2c(s/c(=C/c3cccc(OCC(=O)O)c3)c2=O)=N1` (centres undefined): the viability under setting [1] was found to be 127% and the viability (at 50 µM (top of the series)) is 114% (inactive). Further, under setting [2], the minimum viability stood at 104%.

Take `COc1cc(OC)c2c(O)c3c(c(-c4c5c(c(O)c6c(OC)cc(OC)cc46)CO[C@@H](C)[C@H]5O)c2c1)[C@H](O)[C@H](C)OC3`: the viability reads like this: under setting [1], 102%; (at 50 µM (top of the series)) 103% (inactive). Also, the minimum viability under setting [3] is 88.2%.

Consider `CCCCCC#CCC#CCC#CCC#CCCCC(=O)O`, for which the viability is 119% under setting [1] and 94.8% (inactive) (at 50 µM (top of the series)). Also, under setting [2], the minimum viability worked out at 89.9%.

On to `Cc1ccc(-n2c(O)c(C=Nc3ccccc3-c3n[nH]c(=S)[nH]c3=O)c3ccccc3c2=O)c(C)c1`, for which the viability under setting [1] worked out at 85.8%. In addition, the minimum viability (at 50 µM, stronger effect = lower value) was found to be 53.6%.

On to `N#Cc1c(-c2ccccc2)nc(SCc2cccc(C(F)(F)F)c2)[nH]c1=O`, for which the viability is 115% under setting [1] and 82.1% (inactive) (at 50 µM (top of the series)). Moreover, under “at 50 µM, stronger effect = lower value”, the minimum viability was 82.1%.

Regarding `Cc1cc(N2C(=O)C(O)=C(C(=O)c3cc4ccccc4o3)C2c2ccc(Cl)cc2)no1` (centres undefined), the viability is 123% under setting [1] and 83.2% (inactive) (at 50 µM (top of the series)). For the same compound, the minimum viability (at 50 µM, stronger effect = lower value) came out at 83.2%.

`O=C(O)c1[nH]c2ccccc2c1C(c1cc(Cl)cc([N+](=O)[O-])c1O)c1c(C(=O)O)[nH]c2ccccc12`: the viability runs as follows: under setting [1], 96.1%; (at 50 µM (top of the series)) 99.1% (inactive). Also, under setting [3], the minimum viability is 93.4%.

Take `O=C(CCN1C(=O)/C(=C/c2ccccc2Cl)SC1=S)Nc1ccccc1C(=O)O`: the viability was 109% under setting [1] and 98.3% (inactive) (at 50 µM (top of the series)). For the same compound, the minimum viability (at 0.78 µM, stronger effect = lower value) amounted to 87.5%.

Consider `NS(=O)(=O)c1cc(C(=O)NC2CCSc3ccccc32)ccc1Cl` (centres undefined), for which the viability is 103% under setting [1] and 84.3% (inactive) (at 50 µM (top of the series)). The minimum viability (at 50 µM, stronger effect = lower value) was determined as 84.3%.

As for `COC(=O)c1sc(-c2ccc(C(C)(C)C)cc2)cc1NC(=O)COCC(=O)O`, the viability under setting [1] is 89%. Also, the minimum viability (at 50 µM, stronger effect = lower value) is 74.5%.

For the compound `CC1=C(C(=O)OC(C)C)C(c2ccc(Cl)cc2)n2c(s/c(=C\c3ccc(OCC(=O)O)cc3)c2=O)=N1` (centres undefined), the viability under setting [1] turned out to be 103%. Also, the minimum viability (at 50 µM, stronger effect = lower value) is 73.5%.

On to `O=C(NCc1ccccc1)c1ccc2c(=O)[nH]c3c(C(=O)NCC4CCCO4)sc(=S)n3c2c1` (centres undefined), for which the viability is 106% under setting [1] and 86.3% (inactive) (at 50 µM (top of the series)). Moreover, the minimum viability (at 50 µM, stronger effect = lower value) came out at 86.3%.

Take `O=C1NC(=S)N(c2ccc(F)cc2)C(=O)/C1=C\c1ccoc1`: the viability runs as follows: under setting [1], 99.5%; (at 50 µM (top of the series)) 84.8% (inactive). Besides, the minimum viability (at 50 µM, stronger effect = lower value) amounted to 84.8%.

For the compound `COc1cc(/C=C(\C#N)c2nc3ccc(C)cc3[nH]2)cc([N+](=O)[O-])c1O`, the viability under setting [1] came to 90.4%. Besides, under “at 50 µM, stronger effect = lower value”, the minimum viability was 74.1%.

As for `CC(C)COc1ccc(-c2nn(-c3ccccc3)cc2/C=C2/SC(=S)N(CC(=O)O)C2=O)cc1`, the viability runs as follows: under setting [1], 90.2%; (at 50 µM (top of the series)) 81.5% (inactive). Further, the minimum viability (at 50 µM, stronger effect = lower value) was determined as 81.5%.

Regarding `CCOC(=O)c1c(N2C(=O)Nc3cc(Cl)c(Cl)cc3N2O)sc2c1CCCCC2`, the viability under setting [1] was determined as 98.1%. The minimum viability (at 50 µM, stronger effect = lower value) was determined as 70.1%.

With `O=C(O)c1[nH]c2ccccc2c1C(c1cccc(O)c1)c1c(C(=O)O)[nH]c2ccccc12`, the viability under setting [1] turned out to be 95.1% and the viability (at 50 µM (top of the series)) was 91.2% (inactive). The minimum viability under setting [4] stood at 86.4%.

Take `COc1cc(/C=N/NC(=O)C(Cc2c[nH]c3ccccc23)NC(=O)OCc2ccccc2)cc([N+](=O)[O-])c1O` (centres undefined): the viability reads like this: under setting [1], 107%; (at 50 µM (top of the series)) 95% (inactive). In addition, the minimum viability (at 25 µM, stronger effect = lower value) turned out to be 92.5%.

As for `COc1cc(/C=C2\C(=N)N3N=C(S(C)(=O)=O)SC3=NC2=O)ccc1OC(=O)c1ccco1`, the viability under setting [1] came to 102% and the viability (at 50 µM (top of the series)) is 101% (inactive). Under “at 1.56 µM, stronger effect = lower value”, the minimum viability is 87.6%.

`Cc1ccc(NS(=O)(=O)c2ccc(N/N=C/c3ccccc3OCC(=O)O)c([N+](=O)[O-])c2)c(C)c1`: the viability under setting [1] worked out at 101% and the viability (at 50 µM (top of the series)) was 108% (inactive). Also, where the note is “at 0.39 µM, stronger effect = lower value”, the minimum viability came out at 88.5%.

Turning to `CCc1ccc(/C=C2\SC(=S)N(CCCC(=O)Nc3ccccc3C(=O)O)C2=O)cc1`, under setting [1], the viability was 90.6%. Further, where the note is “at 50 µM, stronger effect = lower value”, the minimum viability is 70.3%.

For the compound `CC(C)(C)c1cc(-c2csc(Nc3ccccc3)[n+]2Cc2ccc(C(=O)O)cc2)cc(C(C)(C)C)c1O`, the viability under setting [1] was 96.4%. Moreover, for the setting “at 50 µM, stronger effect = lower value”, the minimum viability was 72.2%.

Take `O=C(O)c1ccc(-c2ccc(/C=C3\NC(=O)N(Cc4ccc(Cl)cc4)C3=O)o2)cc1Cl`: the viability reads like this: under setting [1], 102%; (at 50 µM (top of the series)) 107% (inactive). Besides, the minimum viability under setting [2] is 98.2%.

Consider `COc1ccc(N=C2S/C(=C\c3ccc(OCC(=O)O)cc3)C(=O)N2CCc2c[nH]c3ccccc23)cc1`, for which the viability was 173% under setting [1] and 93.7% (inactive) (at 50 µM (top of the series)). Also, where the note is “at 25 µM, stronger effect = lower value”, the minimum viability was found to be 90.8%.

Take `Cc1cccc(S(=O)(=O)Nc2nc3ccccc3nc2Nc2cccc(C(=O)O)c2)c1`: the viability is, setting by setting: under setting [1], 100%; (at 50 µM (top of the series)) 88.6% (inactive). Further, the minimum viability (at 50 µM, stronger effect = lower value) is 88.6%.

On to `CCS(=O)(=O)C1=NSC2=NC(=O)/C(=C\c3ccc(OS(=O)(=O)c4ccccc4)c(OC)c3)C(=N)N21`, for which the viability is, setting by setting: under setting [1], 101%; (at 50 µM (top of the series)) 80.5% (inactive). For the same compound, under “at 50 µM, stronger effect = lower value”, the minimum viability is 80.5%.

For the compound `Cc1ccc(NC(=O)COc2cccc(/C=C3\SC(=S)N(CCC(=O)O)C3=O)c2)cc1Cl`, under setting [1], the viability worked out at 94%. Besides, the minimum viability (at 50 µM, stronger effect = lower value) amounted to 77%.

As to `O=C(O)CSc1nc(-c2ccc(Cl)cc2)nc2c1oc1ccccc12`, the viability is 108% under setting [1] and 86.3% (inactive) (at 25 µM (top of the series)). Moreover, the minimum viability under setting [2] came to 86.2%.

Take `O=C(O)C(c1ccccc1)N1C(=O)/C(=C\c2ccc(O)c(O)c2)SC1=S` (centres undefined): the viability is, setting by setting: under setting [1], 95.1%; (at 50 µM (top of the series)) 105% (inactive). Further, the minimum viability under setting [3] stood at 99.2%.

Regarding `CSc1ccc(C(c2c(C(=O)O)[nH]c3ccccc23)c2c(C(=O)O)[nH]c3ccccc23)cc1`, the viability was 89.8% under setting [1] and 92.8% (inactive) (at 50 µM (top of the series)). Also, under setting [4], the minimum viability came to 90.5%.

Take `COc1ccccc1NS(=O)(=O)c1cccc(-n2c(O)c(C=Nc3ccccc3C(=O)O)c3ccccc3c2=O)c1`: the viability under setting [1] stood at 111%. Also, the minimum viability (at 50 µM, stronger effect = lower value) amounted to 51.4%.

For `O=C(O)CSc1ncnc2c1sc1nc(-c3ccccc3)c3c(c12)CCC3`, the viability is, setting by setting: under setting [1], 111%; (at 50 µM (top of the series)) 98.6% (inactive). Also, the minimum viability under setting [3] worked out at 92.4%.

As for `CC(c1ccccc1)N1C(=O)c2ccc(C(=O)Nc3ccccc3C(=O)O)cc2C1=O` (centres undefined), the viability is, setting by setting: under setting [1], 111%; (at 50 µM (top of the series)) 100% (inactive). For the same compound, the minimum viability (at 25 µM, stronger effect = lower value) was 85.5%.

With `O=C(O)CN1C(=O)/C(=C\c2cccc(OCc3ccc(Cl)cc3Cl)c2)SC1=S`, the viability reads like this: under setting [1], 126%; (at 50 µM (top of the series)) 95.6% (inactive). The minimum viability under setting [3] is 80.7%.

`CS(=O)(=O)C1=NSC2=NC(=O)/C(=C\c3ccc(OS(=O)(=O)c4ccccc4)cc3)C(=N)N21`: the viability under setting [1] is 89.2% and the viability (at 25 µM (top of the series)) was 83.8% (inactive). In addition, the minimum viability under setting [3] was determined as 83.1%.

As for `CCc1nnc(NS(=O)(=O)c2ccc(NC(=S)NC(=O)/C=C/c3cccs3)cc2)s1`, the viability under setting [1] was found to be 105% and the viability (at 50 µM (top of the series)) was 93.8% (inactive). The minimum viability (at 25 µM, stronger effect = lower value) was 83.5%.

With `O=C(O)c1cc(N/N=C/c2ccc(-c3ccccc3)cc2)ccc1Cl`, the viability under setting [1] is 87.4%. Also, the minimum viability (at 50 µM, stronger effect = lower value) stood at 69.9%.

Turning to `COc1cc(/C=C2/C(=N)N3C(=NC2=O)SN=C3S(C)(=O)=O)ccc1OS(=O)(=O)c1ccccc1`, the viability was 94.8% under setting [1] and 87% (inactive) (at 50 µM (top of the series)). In addition, the minimum viability (at 25 µM, stronger effect = lower value) was 84.7%.

On to `COc1ccc(C(=O)Nc2ccccc2C(=O)O)cc1NC(=O)C(c1ccccc1)c1ccccc1`, for which the viability was 116% under setting [1] and 99.7% (inactive) (at 50 µM (top of the series)). Also, the minimum viability under setting [4] turned out to be 89.1%.

`O=C(Nc1cccc(C(F)(F)F)c1)c1cccc(NS(=O)(=O)c2ccc(O)c(C(=O)O)c2)c1`: the viability is, setting by setting: under setting [1], 107%; (at 50 µM (top of the series)) 85.7% (inactive). Also, the minimum viability (at 25 µM, stronger effect = lower value) came out at 83.3%.
